# Data as given in patent publication US11724998B2, “PXR agonists and uses thereof for gut barrier dysfunction treatment and prevention” (Albert Einstein College of Medicine, priority 2017, dated 2023).
# Entries after “also recorded” stand apart in the source; their conditions may differ.
# How the values were obtained:
# plated hepatocytes = assay: LDH release assay in plated hepatocytes; type: cell-based; conditions: 24 h and 48 h exposure; FIG. 1
# Method: FIG. 1A-1B. FKK compound cytotoxicity assay. (A) MTT cell cytotoxicity assay in LS180 cells lines (NCBI Bookshelf: world wide web ncbi.nlm.nih.gov/books/NBK144065/). […] (B) LDH release assay performed in plated hepatocytes after a 24 h and 48 h exposure. For both panels, assays were performed at least two times in triplicate.
# A very unique feature of simple indole structures (FKK1-10) is that they are predicted to have very short systemic residence times limiting systemic drug exposure and any potential for off-target effects in organs other than the intestines (78).
# PXR = biological target: T1, PXR (Homo sapiens, UniProt O75469); assay: Isothermic titration calorimetry (ITC); type: binding; conditions: FIG. 11
# T1 sequence (O75469 1-434): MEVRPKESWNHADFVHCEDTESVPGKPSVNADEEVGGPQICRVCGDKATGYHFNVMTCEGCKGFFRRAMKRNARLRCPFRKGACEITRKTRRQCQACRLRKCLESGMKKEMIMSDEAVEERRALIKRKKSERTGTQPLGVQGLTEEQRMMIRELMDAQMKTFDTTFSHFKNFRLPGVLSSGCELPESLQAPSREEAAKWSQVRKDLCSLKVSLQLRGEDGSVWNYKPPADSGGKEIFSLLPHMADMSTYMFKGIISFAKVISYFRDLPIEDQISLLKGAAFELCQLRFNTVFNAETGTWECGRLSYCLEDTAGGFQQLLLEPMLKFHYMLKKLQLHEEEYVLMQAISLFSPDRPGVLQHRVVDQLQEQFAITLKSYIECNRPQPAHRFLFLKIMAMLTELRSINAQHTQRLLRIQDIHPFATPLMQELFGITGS
# PXR LBD = biological target: T2, PXR LBD (Homo sapiens, UniProt O75469); assay: One-hybrid PXR LBD reporter gene assay in Caco-2 cells; type: cell-based; conditions: 24 h exposure, FIG. 3
# T2 construct: validated using a one-hybrid PXR LBD reporter assay; expressed in transfected cells; host or cells: Caco-2
# T2 sequence (O75469 146-433 limits assumed): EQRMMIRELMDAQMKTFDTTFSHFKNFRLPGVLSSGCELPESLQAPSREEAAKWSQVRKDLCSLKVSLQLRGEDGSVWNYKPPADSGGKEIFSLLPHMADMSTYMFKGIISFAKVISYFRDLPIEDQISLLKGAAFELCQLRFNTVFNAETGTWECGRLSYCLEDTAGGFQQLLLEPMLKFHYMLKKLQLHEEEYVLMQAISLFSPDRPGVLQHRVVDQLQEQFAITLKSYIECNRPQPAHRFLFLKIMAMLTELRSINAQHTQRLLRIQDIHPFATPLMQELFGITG
# Method: FIG. 3. One-hybrid PXR reporter gene assay. Performed in Caco-2 cells as a 24 h exposure to FKK5 at two different concentrations.
# IL-8 = assay: TNF-induced IL-8 in human intestinal organoids; type: cell-based; conditions: initial experiment n=2, FIG. 12
# Source text: Intestinal organoids were developed using human small intestines and stem cell isolation and propagation in vitro.
smiles,measurement,setting,value
O=C(c1ccncc1)c1cc2ccccc2n1S(=O)(=O)c1ccccc1 [FKK5],cytotoxicity in hepatocytes,plated hepatocytes,no cytotoxicity observed
same,binding to human PXR,PXR,efficient and direct binding
same,activation of PXR,PXR LBD,~5 fold
same,TNF-induced IL-8 expression,IL-8,significant attenuation; also recorded: reduces pro-inflammatory cytokine IL-8 expression
